For 16 molecules, IC50 results are on record in patent publication US20190322676A1, “CERAMIDE GALACTOSYLTRANSFERASE INHIBITORS FOR THE TREATMENT OF DISEASE” (BioMarin Pharmaceutical Inc., priority 2016, published 2019).

Counter-ions that a name gives are not always drawn.

For this experiment, the target named is T1, human CGT (ceramide galactosyltransferase), CHO/CGT lysate (Homo sapiens, UniProt Q16880).
T1 construct: Full-length human CGT cDNA was cloned into the BamH1/Xho1 site of pcDNA3.1 (+); expressed in transfected cells; host or cells: Chinese hamster ovary (CHO) cells; lysate prepared with M-PER
T1 sequence (Q16880 21-541): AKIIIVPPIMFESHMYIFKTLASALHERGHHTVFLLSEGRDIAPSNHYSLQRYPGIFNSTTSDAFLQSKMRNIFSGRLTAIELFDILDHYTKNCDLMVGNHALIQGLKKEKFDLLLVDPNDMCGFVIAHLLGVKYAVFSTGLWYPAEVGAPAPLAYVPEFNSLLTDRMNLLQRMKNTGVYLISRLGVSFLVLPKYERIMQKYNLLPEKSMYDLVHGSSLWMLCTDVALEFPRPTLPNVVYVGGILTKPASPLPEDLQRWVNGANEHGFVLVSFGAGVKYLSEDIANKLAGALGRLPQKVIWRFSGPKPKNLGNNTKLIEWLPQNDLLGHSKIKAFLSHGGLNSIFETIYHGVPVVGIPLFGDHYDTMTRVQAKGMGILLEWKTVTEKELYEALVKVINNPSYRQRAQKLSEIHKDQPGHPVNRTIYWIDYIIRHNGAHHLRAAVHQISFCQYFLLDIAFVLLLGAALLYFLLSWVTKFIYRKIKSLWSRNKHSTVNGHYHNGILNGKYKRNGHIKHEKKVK
Description: CGT enzyme assay, LC-MS/MS readout (Table 1 ranges without asterisk). The class given is biochemical. To be noted: LC-MS/MS method (range without asterisk). As for the experimental part: Full-length human CGT cDNA was cloned into the BamH1/Xho1 site of pcDNA3.1 (+) mammalian expression vector (V90-20, Invitrogen, Carlsbad, Calif.) and the plasmid was transfected into Chinese hamster ovary (CHO) cells. Lysate was prepared using M-PER (Mammalian Protein Extraction Reagent, ThermoFisher Scientific, Grand Island, N.Y.) in the presence of a protease inhibitor cocktail (P8340, Sigma, Saint Louis, Mo.). Each 100 mm dish (100% confluent, approximately 1×10^7 cells) was lysed with 250 μL of M-PER containing protease inhibitors. Protein concentration was determined using a Pierce BCA protein assay kit (ThermoFisher Scientific). Four micrograms of CHO/CGT lysate was incubated with various concentrations of a compound (0.001 μM-50 μM) in 10 mM HEPES (pH 7.2) containing 35 μM dioleoylphosphatidylcholine, 5 mM MgCl2, 5 mM MnCl2, 1% BSA, 15 mM KCl, 1 mM EGTA, 8 mM CHAPS, 10 μM C6-NBD-dihydro-ceramide and 17.5 μM UDP-galactose in a final reaction volume of 20 μL at 37° C. for 1 hour. The final concentration of DMSO was 0.5% in both compound-treated and mock-treated samples. Tween 80 (0.01%) was optionally added to the reaction mixture to help solubilize the compounds. Each individual reaction was diluted with 80 μL of methanol:acetronitrile (1:3) containing 5 μM N-docdecanoyl-NBD-galactosylceramide (internal standard) to stop the reaction. 200 μL H2O:acetonitile (1:1) was added to precipitate the protein. After sufficient mixing, the plates were centrifuged at 2469 g for 38 minutes, 200 μL of supernatant was transferred to a LC/MS 96-deep well plate and a second spin was performed at 2469 g for 10 minutes. The final supernatant was injected in triplicate for RapidFire/MS/MS analysis.
An alternative LC-MS/MS based method was also used. For the LC-MS/MS readout, the CGT assay was identical to the one described above except for the following: […] was used as the CGT enzyme source, C12:0 (2R—OH) ceramide was used as the ceramide substrate and 0.3 μM Cl2 ceramide was used as the internal standard. Tween 80 was not present in the reaction mixture. The final supernatant was injected for LC-MS/MS analysis.
Quantitative analysis using the LC-MS/MS method: The quantitative analysis of C12:0 (2R—OH) ceramide and C12:0 (2R—OH) galactosylceramide by LC-MS/MS was performed on a Shimadzu ultra-fast liquid chromatography (Shimadzu, Japan) coupled with API 4000 mass spectrometer (Applied Biosystems, Concord, Ontario, Canada). Analyst 1.5 software packages (Applied Biosystems) were used to control the LC-MS/MS system, as well as for data acquisition and processing. 10 μL of sample was loaded onto a Luna C18 column (50 mm×2.0 mm, I.D. 3 μm, 100A) (Phenomenex, USA) for chromatographic separation. Mobile phase A consisted of HPLC grade water with 0.1% formic acid (v/v) and mobile phase B consisted of acetonitrile supplemented with 0.1% formic acid (v/v). The separation was achieved using the following gradient program at a flow rate of 0.8 mL/min: the initial mobile phase was 70% B, which was increased in a linear fashion to 95% B in 1.50 min, and then maintained at 95% B until 3.50 min. The mobile phase was then reset to 70% B within 0.01 min, and maintained until 4.50 min. The total run time was 4.50 min. The MS/MS detection was performed in ESI positive mode. The mass transition selected for quantification was m/z 498.5-264.3 for C12:0 (2R—OH) ceramide under the collision energy of 38.8 V, and the mass transition of C12:0 (2R—OH) galactosylceramide was m/z 660.6-264.5 under the collision energy of 51 V. The mass transition of Cl2 ceramide which was used as internal standard was m/z 482.4-264.3 under the collision energy of 33V. Compound IC50 values were calculated using a protocol identical to the one described for the RapidFire method (see Table 1, where data ranges without an asterix correspond to analysis using the LC-MS/MS method).
Using the above CGT enzyme and CGT cellular assays, the compounds of Table 1 were tested. […]
The IC50 is the concentration that inhibits the measured activity by half. `CC(C)Oc1ccc2cc(S(=O)(=O)N[C@@H](C(=O)N3C4CCC3CC(N)C4)C(F)(F)c3ccc(Br)cc3)ccc2c1` (stereo partly drawn) [Compound 1-2, N-((2S)-3-(3-amino-8-azabicyclo[3.2.1]octan-8-yl)-1-(4-bromophenyl)-1,1-difluoro-3-oxopropan-2-yl)-6-isopropoxynaphthalene-2-sulfonamide] showed an IC50 of 10 to 30 µM.
On to `CCC(CC)COc1ccc(S(=O)(=O)N[C@H](C(=O)N2C3CCC2CC(N)C3)C(F)(F)c2ccc(Br)cc2)cc1` (stereo partly drawn) [Compound 2-1, N-((2R)-3-(3-amino-8-azabicyclo[3.2.1]octan-8-yl)-1-(4-bromophenyl)-1,1-difluoro-3-oxopropan-2-yl)-4-(2-ethylbutoxy)benzenesulfonamide], for which the IC50 lay in the range of 1 to 10 µM.
Then `CCC(CC)COc1ccc(S(=O)(=O)N[C@@H](C(=O)N2C3CCC2CC(N)C3)C(F)(F)c2ccc(Br)cc2)cc1` (stereo partly drawn) [Compound 2-2, N-((2S)-3-(3-amino-8-azabicyclo[3.2.1]octan-8-yl)-1-(4-bromophenyl)-1,1-difluoro-3-oxopropan-2-yl)-4-(2-ethylbutoxy)benzenesulfonamide], with 30 to 100 µM; and `NC1CC2CCC(C1)N2C(=O)C(NS(=O)(=O)c1ccc(-c2ccc(F)cc2)cc1)C(F)(F)c1ccc(Br)cc1` (stereo not shown) [Compound 3, N-(3-(3-amino-8-azabicyclo[3.2.1]octan-8-yl)-1-(4-bromophenyl)-1,1-difluoro-3-oxopropan-2-yl)-4′-fluoro-[1,1′-biphenyl]-4-sulfonamide], with 10 to 30 µM; and `NC1CC2CCC(C1)N2C(=O)[C@H](NS(=O)(=O)c1ccc(-c2ccc(F)cc2)cc1)C(F)(F)c1ccc(Br)cc1` (stereo partly drawn) [Compound 3-2, N-((2S)-3-(3-amino-8-azabicyclo[3.2.1]octan-8-yl)-1-(4-bromophenyl)-1,1-difluoro-3-oxopropan-2-yl)-4′-fluoro-[1,1′-biphenyl]-4-sulfonamide], with 30 to 100 µM.
Molecule `CC(C)Oc1ccc2cc(CCS(=O)(=O)NC(C(=O)N3C4CCC3CC(N)C4)C(F)(F)c3ccc(Br)cc3)ccc2c1` (stereo not shown) [Compound 4, N-(3-(3-amino-8-azabicyclo[3.2.1]octan-8-yl)-1-(4-bromophenyl)-1,1-difluoro-3-oxopropan-2-yl)-2-(6-isopropoxynaphthalen-2-yl)ethanesulfonamide trifluoroacetate] registered an IC50 of 10 to 30 µM.
Molecule `NC1CC2CCC(C1)N2C(=O)C(NS(=O)(=O)c1ccc2cc(OC3CCCC3)ccc2c1)C(F)(F)c1ccc(Br)cc1` (stereo not shown) [Compound 5, N-(3-(3-amino-8-azabicyclo[3.2.1]octan-8-yl)-1-(4-bromophenyl)-1,1-difluoro-3-oxopropan-2-yl)-6-(cyclopentyloxy)naphthalene-2-sulfonamide trifluoroacetate] displayed an IC50 of 1 to 10 µM.
`NC1CC2CCC(C1)N2C(=O)[C@H](NS(=O)(=O)c1ccc2cc(OC3CCCC3)ccc2c1)C(F)(F)c1ccc(Br)cc1` (stereo partly drawn) [Compound 5-2, N-((2S)-3-(3-amino-8-azabicyclo[3.2.1]octan-8-yl)-1-(4-bromophenyl)-1,1-difluoro-3-oxopropan-2-yl)-6-(cyclopentyloxy)naphthalene-2-sulfonamide trifluoroacetate] showed an IC50 of 1 to 10 µM.
On to `CCCCOc1ccc2cc(S(=O)(=O)N[C@H](C(=O)N3C4CCC3CC(N)C4)C(F)(F)c3ccc(Br)cc3)ccc2c1` (stereo partly drawn) [Compound 6-1, N-((2R)-3-(3-amino-8-azabicyclo[3.2.1]octan-8-yl)-1-(4-bromophenyl)-1,1-difluoro-3-oxopropan-2-yl)-6-butoxynaphthalene-2-sulfonamide trifluoroacetate], for which the IC50 was 1 to 10 µM.
For the molecule `CCCCOc1ccc2cc(S(=O)(=O)N[C@@H](C(=O)N3C4CCC3CC(N)C4)C(F)(F)c3ccc(Br)cc3)ccc2c1` (stereo partly drawn) [Compound 6-2, N-((2S)-3-(3-amino-8-azabicyclo[3.2.1]octan-8-yl)-1-(4-bromophenyl)-1,1-difluoro-3-oxopropan-2-yl)-6-butoxynaphthalene-2-sulfonamide trifluoroacetate], the half-inhibitory concentration (IC50) fell in the range of 30 to 100 µM.
The same measure for `CC(C)COc1ccc2cc(S(=O)(=O)N[C@H](C(=O)N3C4CCC3CC(N)C4)C(F)(F)c3ccc(Br)cc3)ccc2c1` (stereo partly drawn) [Compound 7-1, N-((2R)-3-(3-amino-8-azabicyclo[3.2.1]octan-8-yl)-1-(4-bromophenyl)-1,1-difluoro-3-oxopropan-2-yl)-6-isobutoxynaphthalene-2-sulfonamide]: 1 to 10 µM.
As for `CC(C)COc1ccc2cc(S(=O)(=O)N[C@@H](C(=O)N3C4CCC3CC(N)C4)C(F)(F)c3ccc(Br)cc3)ccc2c1` (stereo partly drawn) [Compound 7-2, N-((2S)-3-(3-amino-8-azabicyclo[3.2.1]octan-8-yl)-1-(4-bromophenyl)-1,1-difluoro-3-oxopropan-2-yl)-6-isobutoxynaphthalene-2-sulfonamide], the half-inhibitory concentration (IC50) lay within 30 to 100 µM.
For the molecule `CC(C)Oc1ccc2cc(S(=O)(=O)N[C@@H](C(=O)N3C4CCC3CC(N)C4)C(F)(F)c3ccc(Cl)cc3)ccc2c1` (stereo partly drawn) [Compound 8-2, N-((2S)-3-(3-amino-8-azabicyclo[3.2.1]octan-8-yl)-1-(4-chlorophenyl)-1,1-difluoro-3-oxopropan-2-yl)-6-isopropoxynaphthalene-2-sulfonamide trifluoroacetate], the IC50 lay within 10 to 30 µM.
Then `CC(C)Oc1ccc2cc(C(=O)C(=O)N[C@H](C(=O)N3C4CCC3CC(N)C4)C(F)(F)c3ccc(Br)cc3)ccc2c1` (stereo partly drawn) [Compound 9-1, N-((2R)-3-(3-amino-8-azabicyclo[3.2.1]octan-8-yl)-1-(4-bromophenyl)-1,1-difluoro-3-oxopropan-2-yl)-2-(6-isopropoxynaphthalen-2-yl)-2-oxoacetamide trifluoroacetate], with 10 to 30 µM.
In turn, `CC(C)Oc1ccc2cc(C(=O)C(=O)N[C@@H](C(=O)N3C4CCC3CC(N)C4)C(F)(F)c3ccc(Br)cc3)ccc2c1` (stereo partly drawn) [Compound 9-2, N-((2S)-3-(3-amino-8-azabicyclo[3.2.1]octan-8-yl)-1-(4-bromophenyl)-1,1-difluoro-3-oxopropan-2-yl)-2-(6-isopropoxynaphthalen-2-yl)-2-oxoacetamide trifluoroacetate] yielded a half-inhibitory concentration (IC50) of 30 to 100 µM.
As to `NC1CC2CCC(C1)N2C(=O)[C@@H](NS(=O)(=O)c1ccc2cc(Oc3ccccn3)ccc2c1)C(F)(F)c1ccc(Br)cc1` (stereo partly drawn) [Compound 10-1, N-((2R)-3-(3-amino-8-azabicyclo[3.2.1]octan-8-yl)-1-(4-bromophenyl)-1,1-difluoro-3-oxopropan-2-yl)-6-(pyridin-2-yloxy)naphthalene-2-sulfonamide trifluoroacetate], the concentration for half-maximal inhibition (IC50) lay in the range of 30 to 100 µM.
